Measurements as given in the NIST ThermoML archive (doi:10.1016/j.jct.2008.09.002).

Assay: xn = mol fraction of the nth substance listed
Conditions: 101.3 kPa, Liquid, Vibrating tube method

C[N+](=O)[O-] [nitromethane] + CCCCn1cc[n+](C)c1.F[B-](F)(F)F
mass density [kg/m3]
Conditions | 293.15 K | 298.15 K | 303.15 K | 308.15 K | 313.15 K | 318.15 K
x2 = 0.1007 | 1167 | 1161.3 | 1155.7 | 1150 | 1144.4 | 1138.7
x2 = 0.2066 | 1181.1 | 1176.1 | 1171.1 | 1166 | 1161.1 | 1156.1
x2 = 0.2597 | 1185.9 | 1181.1 | 1176.4 | 1171.5 | 1166.8 | 1162.1
x2 = 0.3069 | 1189.3 | 1184.7 | 1180.1 | 1175.4 | 1170.9 | 1166.3
x2 = 0.3957 | 1194.4 | 1190 | 1185.6 | 1181.2 | 1176.9 | 1172.5
x2 = 0.41 | 1195 | 1190.6 | 1186.3 | 1181.9 | 1177.6 | 1173.3
x2 = 0.4866 | 1198.1 | 1193.9 | 1189.7 | 1185.5 | 1181.4 | 1177.2
x2 = 0.5058 | 1198.7 | 1194.6 | 1190.4 | 1186.3 | 1182.2 | –
x2 = 0.6016 | 1201.5 | 1197.5 | 1193.5 | 1189.5 | 1185.5 | –
x2 = 0.6455 | 1202.6 | 1198.6 | 1194.7 | 1190.8 | 1186.9 | –
x2 = 0.6837 | 1203.4 | 1199.5 | 1195.6 | 1191.7 | 1187.9 | –
x2 = 0.7793 | 1205.1 | 1201.3 | 1197.5 | 1193.7 | 1190 | –
x2 = 0.8867 | 1206.5 | 1202.9 | 1199.2 | 1195.6 | 1191.9 | –
